≈ marks a conversion by molar mass, not a printed value.
Key:
Assay type in all cases: functional
[1] = tested on: Cryptococcus neoformans; assay: Antifungal activity against Cryptococcus neoformans ZKCC 2209 assessed as fungal growth inhibition measured after 72 hrs by double dilution method
[2] = tested on: Candida albicans; assay: Antifungal activity against Candida albicans ATCC SC5314 assessed as fungal growth inhibition measured after 72 hrs by double dilution method
[3] = tested on: Pichia kudriavzevii; assay: Antifungal activity against Candida krusei ATCC 6258 assessed as fungal growth inhibition measured after 72 hrs by double dilution method
[4] = tested on: Candida tropicalis; assay: Antifungal activity against Candida tropicalis ATCC 1369 assessed as fungal growth inhibition measured after 72 hrs by double dilution method
[5] = tested on: Aspergillus fumigatus; assay: Antifungal activity against Aspergillus fumigatus KM8001 assessed as fungal growth inhibition measured after 72 hrs by double dilution method
[6] = tested on: Candida albicans; assay: Induction of mitochondrial membrane potential loss in Candida albicans ATCC SC5314 assessed as polarized cells at 1 umol/ml incubated for 24 hrs by JC-1 staining based flow cytometry assay (reference value: 0.69%); details: dose 1 µmol/L, at 1 µM
[7] = tested on: Candida albicans; assay: Induction of mitochondrial membrane potential loss in Candida albicans ATCC SC5314 assessed as normal cells at 1 umol/ml incubated for 24 hrs by JC-1 staining based flow cytometry assay (reference value: 95.26%); details: dose 1 µmol/L, at 1 µM
[8] = tested on: Candida albicans; assay: Induction of mitochondrial membrane potential loss in Candida albicans ATCC SC5314 assessed as depolarized cells at 1 umol/ml incubated for 24 hrs by JC-1 staining based flow cytometry assay (reference value: 0.76 to 3.29%); details: dose 1 µmol/L, at 1 µM
[9] = tested on: Candida albicans; assay: Induction of apoptosis in Candida albicans ATCC SC5314 assessed as normal cells incuabted for 24 hrs by V-FITC/PI staining based flow cytometry analysis (reference value: 96.78%)
[10] = tested on: Candida albicans; assay: Induction of apoptosis in Candida albicans ATCC SC5314 assessed as mid apoptotic cells incuabted for 24 hrs by V-FITC/PI staining based flow cytometry analysis (reference value: 1.09%)
[11] = tested on: Candida albicans; assay: Induction of apoptosis in Candida albicans ATCC SC5314 assessed as late apoptotic cells incuabted for 24 hrs by V-FITC/PI staining based flow cytometry analysis (reference value: 0.36%)
[12] = tested on: Candida albicans; assay: Induction of apoptosis in Candida albicans ATCC SC5314 assessed as necrotic cells incuabted for 24 hrs by V-FITC/PI staining based flow cytometry analysis (reference value: 1.77%)

| MIC50 [1] [µg/mL] | MIC50 [2] [µg/mL] | MIC50 [3] [µg/mL] | MIC50 [4] [µg/mL] | MIC50 [5] [µg/mL] | Compound | Activity [6] [%] | Activity [7] [%] | Activity [8] [%] | Activity [9] [%] | Activity [10] [%] | Activity [11] [%] | Activity [12] [%] |
| --- | --- | --- | --- | --- | --- | --- | --- | --- | --- | --- | --- | --- |
| 0.5 (≈ 1.18 µM) | 0.5 (≈ 1.18 µM) | 1 (≈ 2.37 µM) | 2 (≈ 4.73 µM) | > 8 | CC(C)NC(=O)[C@@H](Cn1ccnc1)NC(=O)[C@@H](C)c1ccc(-c2ccccc2)c(F)c1 | – | – | – | – | – | – | – |
| 1 (≈ 2.36 µM) | 1 (≈ 2.36 µM) | 2 (≈ 4.71 µM) | 0.5 (≈ 1.18 µM) | > 8 | CC(C)OC(=O)[C@@H](Cn1cncn1)NC(=O)[C@@H](C)c1ccc(-c2ccccc2)c(F)c1 | – | – | – | – | – | – | – |
| 0.5 (≈ 1.22 µM) | 0.25 (≈ 0.609 µM) | 1 (≈ 2.44 µM) | 0.5 (≈ 1.22 µM) | 4 (≈ 9.74 µM) | COc1ccc2cc([C@H](C)C(=O)N[C@H](Cn3cncn3)C(=O)OC(C)C)ccc2c1 | – | – | – | – | – | – | – |
| 1 (≈ 2.21 µM) | 1 (≈ 2.21 µM) | 0.5 (≈ 1.11 µM) | 0.5 (≈ 1.11 µM) | 4 (≈ 8.86 µM) | C[C@H](C(=O)NC(Cn1ccnc1)C(=O)c1ccccc1)c1cccc(C(=O)c2ccccc2)c1 (some centres not stated) | – | – | – | – | – | – | – |
| 0.5 (≈ 1.06 µM) | 1 (≈ 2.12 µM) | 1 (≈ 2.12 µM) | 2 (≈ 4.23 µM) | > 8 | C[C@H](C(=O)N[C@H](Cn1ccnc1)C(=O)NC1CCCCC1)c1cccc(C(=O)c2ccccc2)c1 | – | – | – | – | – | – | – |
| 0.58 (≈ 1.52 µM) | 0.25 (≈ 0.655 µM) | 1 (≈ 2.62 µM) | 1 (≈ 2.62 µM) | > 8 | COC(=O)[C@@H](Cn1ccnc1)NC(=O)[C@@H](C)c1ccc2cc(OC)ccc2c1 | – | – | – | – | – | – | – |
| 0.5 (≈ 1.1 µM) | 5 (≈ 11 µM) | 1 (≈ 2.21 µM) | 0.5 (≈ 1.1 µM) | 4 (≈ 8.84 µM) | C[C@H](C(=O)NC(Cn1cncn1)C(=O)c1ccccc1)c1cccc(C(=O)c2ccccc2)c1 (some centres not stated) | – | – | – | – | – | – | – |
| 2 (≈ 5.05 µM) | 0.5 (≈ 1.26 µM) | 1 (≈ 2.52 µM) | 2 (≈ 5.05 µM) | 4 (≈ 10.1 µM) | COC(=O)[C@@H](Cn1cncn1)NC(=O)[C@@H](C)c1ccc(-c2ccccc2)c(F)c1 | – | – | – | – | – | – | – |
| 1 (≈ 2.46 µM) | 0.5 (≈ 1.23 µM) | 0.5 (≈ 1.23 µM) | 1 (≈ 2.46 µM) | 2 (≈ 4.92 µM) | COC(=O)[C@@H](Cn1cncn1)NC(=O)[C@@H](C)c1cccc(C(=O)c2ccccc2)c1 | 0.54 | 54.56 | 0.9 | 64.15 | 0.26 | 0.9 | 34.69 |
| 0.5 (≈ 1.22 µM) | 0.25 (≈ 0.612 µM) | 0.25 (≈ 0.612 µM) | 1 (≈ 2.45 µM) | 4 (≈ 9.79 µM) | COc1ccc2cc([C@H](C)C(=O)N[C@H](Cn3ccnc3)C(=O)NC(C)C)ccc2c1 | – | – | – | – | – | – | – |
| 0.5 (≈ 1.26 µM) | 1 (≈ 2.53 µM) | 0.5 (≈ 1.26 µM) | 2 (≈ 5.06 µM) | > 8 | COC(=O)[C@@H](Cn1ccnc1)NC(=O)[C@@H](C)c1ccc(-c2ccccc2)c(F)c1 | – | – | – | – | – | – | – |
| 1 (≈ 2.47 µM) | 1 (≈ 2.47 µM) | 2 (≈ 4.93 µM) | 0.5 (≈ 1.23 µM) | 4 (≈ 9.87 µM) | COC(=O)[C@@H](Cn1ccnc1)NC(=O)[C@@H](C)c1cccc(C(=O)c2ccccc2)c1 | – | – | – | – | – | – | – |

Source: ChEMBL document CHEMBL5113529, “Design, Synthesis, and Biological Evaluation of Dual-Target COX-2/CYP51 Inhibitors for the Treatment of Fungal Infectious Diseases” (J Med Chem, 2022)
